# Test results reported in patent US20100093645A1, “SMAC Peptidomimetics and the Uses Thereof” (priority 2004, published 2010).
# “And” between values parts separate entries of the source, which are not always exact repeats. Identical values can stand only once. Like-named read-outs stand apart in the source and are kept apart here. Square brackets hold non-standard residues; d marks the D form. Peptide text beside a SMILES is read from it. * marks the point of attachment. 6FAM = O=C1OC2(c3ccc(O)cc3Oc3cc(O)ccc32)c2cc(C(=O)*)ccc21; Abu = CC[C@H](N)C(=O)O; NHPr = CCCN*
# Tests used:
# PC-3 cells [1] = test: MTT cell viability assay in PC-3 cells; format: cell-based; settings: Homo sapiens
# Experimental: (§1) . The cells were then incubated at 37 C with 5% CO2 for 5 days, followed by detection of cell viability with the MTT assay. Untreated cells were used as 100% growth. […].
# [2] = test system: MDA-231 breast cancer cell line; test: MTT cell viability assay in MDA-231 cells; format: cell-based; settings: Homo sapiens, MDA-MB-231, 120 h, read-out: EC50 growth inhibition
# Experimental: as §1
# [3] = target: T1, human XIAP-BIR3 protein (residues 241-356) (Homo sapiens, UniProt P98170); test: biochemical
# Target sequence in this assay (P98170 241-356): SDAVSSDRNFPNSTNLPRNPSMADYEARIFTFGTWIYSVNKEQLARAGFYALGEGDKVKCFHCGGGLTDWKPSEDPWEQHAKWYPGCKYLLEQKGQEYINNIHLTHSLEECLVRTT
# PC-3 cells [4] = test: Apoptosis by Annexin V-FITC staining in PC-3 cells, alone or with CDDP; format: cell-based, human
# Experimental: […]. […] […]. The experiment used PC-3 cells which express high levels of XIAP and cIAP-1/2 proteins and cisplatin (CDDP) as the chemotherapeutic drug. CDDP is a DNA damaging agent and can effectively induce apoptosis in PC-3 cells and is also a clinically used chemotherapeutic drug for prostate cancer.
# PC-3 cells were treated with CDDP, Smac peptides and peptidomimetics alone or in combination for 42 hours and apoptosis was analyzed by Annexin V-FITC staining. […] Combination of 25 μM CDDP and 10 μM or 25 μM SH-97 induced 29.3%±1.9% and 35.8%±0.4% apoptosis over control cells, respectively (FIG. 6A). […].
# In a similar experiment, PC-3 cells were treated with the Smac peptidomimetic CJ-445 (Table 3) and CDDP as described above. Combination of 25 μM CDDP and 5 μM or 10 μM CJ-445 induced about 30% and about 35% apoptosis over control cells, respectively (FIG. 7).
# [5] = target: human XIAP-BIR3 protein (residues 241-356) with a His tag (human) (UniProt P98170); test: competitive fluorescence polarization, SM5F tracer; against S9 as reference
# human XIAP-BIR3 protein (residues 241-356) with a His tag (human), sequence (P98170 241-356 limits assumed): as the sequence (P98170 241-356) above
# [6] = target: human XIAP-BIR3 protein (residues 241-356) with a His tag (human) (UniProt P98170); test: fluorescence polarization, saturation; 5 nM peptide titrated with 0 to 40 µM protein
# [7] = target: human XIAP-BIR3 protein (residues 241-356) with a His tag (human) (UniProt P98170); test: fluorescence polarization, saturation; against S9F as reference
# [8] = target: human XIAP-BIR3 protein (residues 241-356) with a His tag (human) (UniProt P98170); test: fluorescence polarization; 5 nM SM5F and 0.030 µM XIAP-BIR3
# [9] = test system: MDA-231 breast cancer cells; test: Apoptosis by Annexin V-FITC/propidium iodide flow cytometry in MDA-231 cells, alone or with CDDP; format: cell-based, human; settings: 42 hours
# Experimental: Another experiment was carried out in which MDA-231 breast cancer cells in 6-well plates were treated with SH-97 and CDDP, alone or in combination, for 42 hours. Cells were collected and stained with Annexin V-FITC and propidium iodide. The fluorescence of individual cells was analyzed by flow cytometry. 25 and 50 μM CDDP induced about 30% and about 45%, respectively, of cancer cells to undergo apoptosis as compared to control cells (FIG. 8). Combination of 25 or 50 μM CDDP and 10 μM SH-97 induced about 50% and 90% apoptosis over control cells, respectively (FIG. 8). […] (FIG. 8).
# PC-3 cells [10] = test: Clonogenic assay with X-ray radiation in PC-3 cells
# [11] = target: T1, human XIAP-BIR3 protein (residues 241-356); test: Fluorescence polarization saturation (direct) binding of labeled Smac peptides; settings: 5 nM labeled peptide, protein 0 to 40 μM, read-out: Kd value (dissociation constant) to XIAP-BIR3
# [12] = PC-3, MTT, read-out: EC50 growth inhibition
# [13] = 10 μM compound + 25 μM CDDP, 42 hours
molecule,measurement,setting,value
C[C@H](N)C(=O)N[C@H](C(=O)N1CCC[C@H]1C(=O)NC(c1ccccc1)c1ccccc1)c1ccccc1 [CJ-450],EC50,PC-3 cells [1]; [12],120 to 130 µM
same,EC50,"[2]; 5 days, MTT",120 to 130 µM
same,Ki,[3],10.4 µM
CC(C)[C@H](NC(=O)[C@H](C)N)C(=O)N1CCC[C@H]1C(=O)NCc1c[nH]c2ccccc12 [CJ-488],Ki,[3],41 µM
COc1cccc(CNC(=O)[C@@H]2CCCN2C(=O)[C@@H](NC(=O)[C@H](C)N)C(C)C)c1 [CJ-413],Ki,[3],2.92 µM
CC(C)[C@H](NC(=O)[C@H](C)N)C(=O)N1CCC[C@@H]1CNCc1ccccc1 [SH-81],Ki,[3],> 200 µM
CC(C)[C@H](NC(=O)CN)C(=O)N1CCC[C@H]1CCCc1ccccc1 [SH-82],Ki,[3],3.22 µM
CC(C)[C@H](NC(=O)[C@H](C)N)C(=O)N1CCC[C@H]1C(=O)NC(c1ccccc1)c1ccccc1 [Compound 11],EC50,[2],120 to 130 µM
C[C@H](N)C(=O)N[C@H](C(=O)N1CCC[C@H]1C(=O)NC(c1ccccc1)c1ccccc1)C1CCCC1 [CJ-467],Ki,[3],0.37 µM
Cc1cccc(CNC(=O)[C@@H]2CCCN2C(=O)[C@@H](NC(=O)[C@H](C)N)C(C)C)c1 [CJ-410],Ki,[3],1.19 µM
CNC(=O)[C@@H]1CCCN1C(=O)[C@@H](NC(=O)[C@H](C)N)C(C)C [CJ-452] (H-Ala-Val-Pro-NHMe),Ki,[3],80.9 µM
C[C@H](N)C(=O)N[C@@H](CC1CCCCC1)C(=O)N1CCC[C@H]1C(=O)NC(c1ccccc1)c1ccccc1 [CJ-473],Ki,[3],0.56 µM
CCNC(=O)[C@@H]1CCCN1C(=O)[C@@H](NC(=O)[C@H](C)N)C(C)C [CJ-418] (H-Ala-Val-Pro-NHEt),Ki,[3],55.3 µM
CC[C@H](N)C(=O)N[C@H](C(=O)N1CCC[C@H]1C(=O)N[C@@H](Cc1ccccc1)c1ccccc1)C(C)C [SH-98],Ki,[3],3.1 µM
CC(C)[C@H](NC(=O)[C@H](C)N)C(=O)N1CCC[C@H]1C(=O)NCc1cccc(Cl)c1 [CJ-420],Ki,[3],1.42 µM
CC(C)[C@H](NC(=O)[C@H](C)N)C(=O)N1CC[C@H]1C(=O)NC(c1ccccc1)c1ccccc1 [CJ-469],Ki,[3],0.78 µM
CC(C)[C@H](NC(=O)[C@H](C)N)C(=O)N1CCC[C@H]1C(=O)NCc1cccc2ccccc12 [CJ-489],Ki,[3],0.7 µM
Cc1ccccc1CNC(=O)[C@@H]1CCCN1C(=O)[C@@H](NC(=O)[C@H](C)N)C(C)C [CJ-411],Ki,[3],0.54 µM
CC(C)[C@H](NC(=O)[C@H](C)N)C(=O)N1CCC[C@H]1CNCc1ccccc1 [SH-80],Ki,[3],25.7 µM
CC[C@H](N)C(=O)N[C@H](C(=O)N1CCC[C@H]1C(=O)NC(c1ccccc1)c1ccccc1)C1CCCCC1.Cl [CJ-445],EC50,PC-3 cells [1]; [12],120 to 130 µM
same,EC50,"[2]; 5 days, MTT",120 to 130 µM
same,apoptosis over control cells,"PC-3 cells [4]; 5 μM compound + 25 μM CDDP, 42 hours",about 30%
same,apoptosis over control cells,PC-3 cells [4]; [13],about 35%
same,"sensitizing PC-3 cells to CDDP-induced apoptosis, compared with Smac8-C",PC-3 cells [4]; 10 μM compound vs 100 μM Smac8-C,as potent as 100 μM Smac8-C
same,Ki,[3],1.13 µM
"unlabeled mutated Smac 5-mer peptide (SM5), AbuRPFK",ratio of the IC50 values for SM5 and S9,[5],6.7 fold
CC[C@H](N)C(=O)N[C@H](C(=O)N1CCC[C@H]1C(=O)NC(c1ccccc1)c1ccccc1)c1ccccc1 [CJ-444],EC50,PC-3 cells [1]; [12],120 to 130 µM
same,EC50,"[2]; 5 days, MTT",120 to 130 µM
same,Ki,[3],13.5 µM
CC(C)[C@H](NC(=O)[C@H](C)N)C(=O)N1CCC[C@H]1C(=O)NCc1ccccc1Cl [CJ-421],Ki,[3],1.73 µM
COc1ccccc1CNC(=O)[C@@H]1CCCN1C(=O)[C@@H](NC(=O)[C@H](C)N)C(C)C [CJ-414],Ki,[3],3.88 µM
C[C@H](N)C(=O)N[C@H](C(=O)N1CCC[C@H]1C(=O)NC(c1ccccc1)c1ccccc1)C1CCCCC1 [CJ-451],EC50,"PC-3 cells [1]; PC-3, read-out: EC50 growth inhibition",120 to 130 µM
same,EC50,[2],120 to 130 µM
CC[C@H](N)C(=O)N[C@H](C(=O)N1CCC[C@H]1C(=O)N[C@@H](c1ccccc1)c1ccc(CCCOC)cc1)C(C)C [SH-103],Ki,[3],0.1 µM
"AbuRPFK-FAM, termed SM5F (fluorescently labeled mutated 5-mer Smac peptide)",maximum binding,[6],276 mP
same,fold higher binding affinity than S9F,[7],10 fold
same,ratio of the Kd values between SM5F and S9F,[7],7.2 fold
same,percent of tracer saturated,[8],60%
"[NH2][Pt]([NH2])([Cl])[Cl] [CDDP, cisplatin, reference compound]",apoptosis as compared to control cells,"PC-3 cells [4]; 25 μM CDDP alone, 42 hours",12-15%
same,apoptosis as compared to control cells,[9]; 25 μM CDDP alone,about 30%
same,apoptosis as compared to control cells,[9]; 50 μM CDDP alone,about 45%
CC[C@H](N)C(=O)N[C@H](C(=O)N1CCC[C@H]1C(=O)NC(c1ccccc1)c1ccccc1)C(C)C [Compound 16],EC50,[2],120 to 130 µM
same,radiosensitization compared with Smac8-C,"PC-3 cells [10]; 10 μM SH-97 vs 100 μM Smac8-C, 6 and 8 Gy",more effective than 100 μM of the cell-permeable Smac peptide Smac8-C
same,reduction of colony formation as compared to radiation alone,"PC-3 cells [10]; 6 Gy, 10 μM compound",more than 10 fold
same,reduction of colony formation as compared to radiation alone,"PC-3 cells [10]; 6 Gy, 25 μM compound",more than 10 fold
same,reduction of colony formation as compared to radiation alone,"PC-3 cells [10]; 8 Gy, 10 μM compound",40 fold
same,reduction of colony formation as compared to radiation alone,"PC-3 cells [10]; 8 Gy, 25 μM compound",50 fold
same,effect on activity of X-ray radiation,"PC-3 cells [10]; 10 and 25 μM SH-97, 100 μM Smac8-C",significantly increased the activity of the radiation
same,effect on colony formation by compound itself,"PC-3 cells [10]; without radiation, 10 days",no significant effect
same,apoptosis over control cells,PC-3 cells [4]; [13],29.3%±1.9%
same,apoptosis over control cells,"PC-3 cells [4]; 25 μM compound + 25 μM CDDP, 42 hours",35.8%±0.4%
same,apoptosis induction by compound alone,"PC-3 cells [4]; alone, 42 hours, SH-97 up to 50 μM",did not induce significantly more apoptosis
same,apoptosis over control cells,[9]; 10 μM compound + 25 μM CDDP,about 50%
same,apoptosis over control cells,[9]; 10 μM compound + 50 μM CDDP,~90%
C[C@H](N)C(=O)N[C@H](C(=O)N1CCC[C@@H]1C(=O)NC(c1ccccc1)c1ccccc1)C1CC1 [CJ-464-2],Ki,[3],3.54 µM
CC(C)[C@H](NC(=O)[C@H](C)N)C(=O)N1CCC[C@H]1CCc1ccccc1 [SH-64],Ki,[3],> 200 µM
Cc1ccc(CNC(=O)[C@@H]2CCCN2C(=O)[C@@H](NC(=O)[C@H](C)N)C(C)C)cc1 [CJ-409],Ki,[3],3.21 µM
CC(C)[C@H](NC(=O)[C@H](C)N)C(=O)N1CCC[C@H]1C(=O)NCc1ccc(O)cc1 [CJ-425],Ki,[3],1.34 µM
COc1ccc(CNC(=O)[C@@H]2CCCN2C(=O)[C@@H](NC(=O)[C@H](C)N)C(C)C)cc1 [CJ-412],Ki,[3],11.7 µM
CC(C)[C@H](NC(=O)[C@H](C)N)C(=O)N1CCCC[C@H]1C(=O)NC(c1ccccc1)c1ccccc1 [CJ-458],Ki,[3],160 µM
"AVPIAQKS [Smac-8, reference compound]",potentiation of the activity of CDDP in inducing apoptosis,PC-3 cells [4]; negative controls with CDDP,unable to potentiate the activity of CDDP
"CC[C@H](N)C(=O)N[C@@H](CCCNC(=N)N)C(=O)N1CCC[C@H]1C(=O)N[C@@H](Cc1ccccc1)C(=O)N[C@@H](CCCCNC(=O)c1ccc2c(c1)C1(OC2=O)c2ccc(O)cc2Oc2cc(O)ccc21)C(N)=O [SM5F, AbuRPFK-FAM] (H-[Abu]RPFK(6FAM)-NH2; N-terminus and C-terminus assumed)",Kd,[11],0.018 µM and 0.0179 µM
CCCNC(=O)[C@@H]1CCCN1C(=O)[C@@H](NC(=O)[C@H](C)N)C(C)C [CJ-453] (H-Ala-Val-Pro-NHPr),Ki,[3],49.2 µM
CC(C)[C@H](NC(=O)[C@H](C)N)C(=O)N1CCC[C@H]1C(=O)NCc1ccc(Cl)cc1 [CJ-419],Ki,[3],0.97 µM
CC(C)[C@H](NC(=O)[C@H](C)N)C(=O)N1CCC[C@H]1C(=O)NCCc1c[nH]c2ccccc12 [CJ-376],Ki,[3],3.99 µM
CC(C)[C@H](NC(=O)[C@H](C)N)C(=O)N1CCC[C@H]1COC(c1ccccc1)c1ccccc1 [SH-106],Ki,[3],5.47 µM
